# Where “and” joins values, the source holds several entries; their conditions need not be identical. Equal values may be shown once. Read-outs that look alike come from different tables or passages of the source.
# Legend:
# [1] = tested on: A. castellanii trophozoites; experiment: Cytotoxicity assay on trophozoites (resazurin / alamarBlue); type: cell-based, Acanthamoeba castellanii ATCC 50370; conditions: for IC50: Acanthamoeba castellanii, Table 2, read-out: IC50 A. castellanii trophozoites
# Method: (§1) Acanthamoeba castellanii ATCC 50370 trophozoites and cysts were cultured in Peptone Glucose (PG) medium and encystment medium (Chagla A H, Griffiths A J (1974) Microbiology: 85(1): 139-145) respectively at 25° C. Cysts were prepared by incubating trophozoites for 8 days in encystment medium and integrity validated with calcofluor (0.25 μg/ml) assay (Gatti S et al (2010) J. Med. Microbiol.; 59: 1324-1330) or sodium dodecyl sulfate (SDS, 0.5% w/v) disintegration assay (Dudley R et al (2005) Acta Trop.; 9: 100-8) and microscopic observation.
# The compounds used in this study all contained alkyl-carbon chains: three APCs [dodecyl-PC (APC12), tetradecyl-PC. (APC14) and hexadecyl-PC (APC16)] (Anatrace) and four QACs [docdecyl-TMAB (QAC12), tetradecyl-TMAB (QAC14), hexadecyl-TMAB (QAC16) and octadecyl-TMAB (QAC18)](Sigma). All were prepared to a stock concentration of 1 mg/ml and diluted as required by the experimental protocol in the cytotoxicity assays. […]
# […] Resazurin (7-Hydroxy-31-phenoxazin-3-one 10-oxide; 5 mg/ml; McBride J et al (2005) J. Clin. Microbiol.; 43: 629-634) and trypan blue (0.4 μg/ml; Mafra C S P et al (2013) Investig. Ophthalmol. Vis. Si.; 54: 6363-6372) were then added to trophozoites and cysts respectively after being exposed to the compounds and the cell viability estimated microscopically and from changes in absorbance (at 595 nm and 570 nm) respectively.
# (§2) Efficacy was expressed as a percentage of untreated controls for each drug concentration used and the data used to calculate the IC50. Cell density was estimated using the modified Neubaur hemocytometer and expressed as cells/ml.
# [2] = tested on: A. castellanii trophozoites; experiment: Trophozoite-cyst conversion in encystment medium; type: cell-based, Acanthamoeba castellanii ATCC 50370; conditions: encystment medium supplemented with 37.5 μg/ml of QAC12
# Method: Acanthamoeba trophozoites (10^5 cells/ml) incubated for up to 192 h in encystment medium inoculated with (dark grey) and without (light grey) QAC12 at 25° C. The number of trophozoites remaining estimated microscopically and expressed as a percent of total trophozoites at the start of the assay. Data is mean […]±SD; n=4 independent experiments performed in triplicates.
# as §1
# A. castellanii cysts [3] = experiment: Cytotoxicity assay on cysts (trypan blue); type: cell-based, Acanthamoeba castellanii ATCC 50370; conditions: Acanthamoeba castellanii
# Method: as §1
# The compounds used in this study all contained alkyl-carbon chains: three APCs [dodecyl-PC (APC12), tetradecyl-PC. (APC14) and hexadecyl-PC (APC16)] (Anatrace) and four QACs [docdecyl-TMAB (QAC12), tetradecyl-TMAB (QAC14), hexadecyl-TMAB (QAC16) and octadecyl-TMAB (QAC18)](Sigma). All were prepared to a stock concentration of 1 mg/ml and diluted as required by the experimental protocol in the cytotoxicity assays. A. castellanii trophozoites and cysts (at 10^5 cells/ml) with or without APCs or QACs (concentrations ranging from […] doubly diluted to 0.04 μg/ml to a final volume of 100 μl) in a 96-well plate were incubated at 25° C. for a duration determined by the experimental protocol.
# For the combined assay, similar concentrations of QAC18 and APC16 were prepared and 18.75 μg/ml and 37.5 μg/ml of QAC12 added (to a final volume of 100 μl) were added to 10^5 cells/mi in a 96-well plate and later incubated at 25° C. for a duration determined by the experimental protocol. Resazurin (7-Hydroxy-31-phenoxazin-3-one 10-oxide; 5 mg/ml; McBride J et al (2005) J. Clin. Microbiol.; 43: 629-634) and trypan blue (0.4 μg/ml; Mafra C S P et al (2013) Investig. Ophthalmol. Vis. Si.; 54: 6363-6372) were then added to trophozoites and cysts respectively after being exposed to the compounds and the cell viability estimated microscopically and from changes in absorbance (at 595 nm and 570 nm) respectively.
# as §2
# gDNA from A. castellanii = experiment: QAC-DNA interaction assay; type: binding, Acanthamoeba castellanii; conditions: DNA:QAC ratios 1:0, 1:1, 1:10, 1:20; 15 min
# Method: FIGS. 3A and 3B show the QAC-DNA interaction. The absorbance of genomic DNA (0.6 ng/ml) extracted from A. castellani trophozoites measured at 260 nm with the Nanodrop after incubating for 15 minutes with 0 ng/ml, 0.6 ng/ml, 6 ng/ml or 12 ng/ml of QAC12 (FIG. 3A) or QAC16 (FIG. 3B) to give ratios of 1:0, 1:1, 1:10 and 1:20. DNA absorbance increased and decreased with increased […] and [QAC12] respectively. Data is mean absorbance at 260 nm±SD; n=4 independent experiments performed in triplicates.
# Genomic deoxynucleic acids (gDNA) from 10^8 A. castellanii trophozoites (treated with and without QAC) were extracted from cells harvested by centrifugation (850×g, 10 min), lysed with UNSET buffer (8M urea, […] NaCl, 2% SDS, […] ethylenediaminetetraacetic acid (EDTA), […] Tris-HCl, pH 7.5) and the DNA extracted with phenol-chloroform (1:1 v/v). The biphasic suspension with DNA enriched on the […] was centrifuged (12,000×g for 15 min, 4° C.) for clear separation and transferred to a new microcentrifuge tube. The DNA was precipitated with cold ethanol (100%, v/v) and 0.3M sodium acetate, washed twice with 70% (v/v) ethanol (12,000×g for 10 min, 4° C.), air dried and resuspended in distilled water. […]
# [4] = QACs; cited from earlier work
# [5] = tested on: Acanthamoeba trophozoites; experiment: Checkerboard dilution QAC-APC interaction (Bliss model); type: cell-based, Acanthamoeba castellanii; conditions: APC12, APC14, APC16; 96 h at 25° C.
# Method: Acanthamoeba trophozoites (10^5 cells/ml. n=5/treatment) treated with 100 μg/ml doubly diluted to 0.06 μg/ml of QAC12 (FIG. 7A), […], QAC16 (FIG. 7C) and QAC18 (FIG. 7D) with APC 12 (i), APCI 4 (ii) and APC16 (iii) for 96 h at 25° C. Cell viability estimated by the alamarBlue assay the dose-response curves used to produce a surface analysis (right panel) and the interaction profile determined using the Bliss model. The degree of interaction characterised by the QCScore heuristic score are produced as heat map (left panel). The colour of each cell in the heatmap and the surface analysis represents the assay response at that dose combination; red to orange, antagonistic: yellow to green, additive and blue, synergistic.
# The change in potency between QAC and APC prompted us to used the checkerboard dilution method to identify synergistic interactions (FIG. 7A-D). Three interaction profiles, antagonistic (orange to red), additive (yellow to green) and synergistic (blue) were observed, with optimal synergistic interactions deemed to be significant occurring between 20-38%; (FIG. 7).
# [6] = tested on: A. castellanii trophozoites; experiment: Drug wash-out / alamarBlue-reversion assay, trophozoites; type: cell-based, Acanthamoeba castellanii ATCC 50370
# A. castellanii cysts [7] = experiment: Drug wash-out / alamarBlue-reversion assay, cysts; type: cell-based, Acanthamoeba castellanii ATCC 50370; conditions: for Back transformation to trophozoites after drug wash-out: Cysts; on Back transformation to trophozoites after drug wash-out: key: +: indicates cells reverting back to trophozoites after washout; and capable of oxidizing reduced alamarBlue from blue to pink after 8 days; −: indicates cell that did not revert to trophozoites after wash-out and unable to oxidise reduced alamarBlue solution
# Method: For the drug kinetic assay, viability was assessed by the linked alamarBlue-reversion assay. Drug-treated cysts were washed with PBS and fresh PG medium was added to allow reversion to trophozoites for 5 days, after which, alamar blue was added and viability estimated as described above.
# The cysticidal activity of QAC16 to QAC18 strongly correlated with (a) the alkyl-carbon chain lengths (Table 2) and the duration of drug contact (FIG. 8H). Like trophozoites, death was via leakage judged by 40% and 50% increase in DNA and proteins in the external milieu after 1 h (FIGS. 9A and 9B). To investigate if the cyst were viable, a complementary viability assay that involved, drug washout, incubation in PG medium to allow reversion of viable cyst to trophozoite for 7 days, and estimation of viability using the oxidation of resazurin after 6 h.
# [8] = read-out: IC50 A. castellanii cysts
smiles,measurement,setting,value
"CCCCCCCCCCCC[N+](C)(C)C.[Br-] [QAC12, Dodecyltrimethyl ammonium bromide]",Increase in absorbance at 570 nm (cell density) relative to control cells,"[1]; 96 h at 25° C., peak at 37.7 μg/ml, alamarBlue",4 fold
same,IC50,[1],> 37.5 µg/mL and > 122 µM
same,Effect on trophozoite biomass,[1]; FIG. 4,dose-dependent increased biomass
same,Activity against A. castellanii trophozoites,[1]; at up to 37.5 μg/ml,inactive
same,Delay of encystation,[2],96 h
same,IC50,A. castellanii cysts [3]; [8],> 37.5 µg/mL and > 122 µM
same,Change of gDNA absorbance at 260 nm with increasing QAC,gDNA from A. castellanii,dose-dependent decreased absorbance
same,CMC,[4],^+3.5 ± 0.3 μM
same,Interaction profile of QAC combined with APCs,[5],Significant synergistic ‘well defined’ interactions were more predominant
"CCCCCCCCCCCCCCCC[N+](C)(C)C.[Br-] [QAC16, hexadecyltrimethyl ammonium bromide]",Back transformation to trophozoites after drug wash-out,"[6]; 9.375 μg/ml, 1 h",+
same,Back transformation to trophozoites after drug wash-out,"[6]; 9.375 μg/ml, 24 h",+
same,Back transformation to trophozoites after drug wash-out,"[6]; 9.375 μg/ml, 48 h",+
same,Back transformation to trophozoites after drug wash-out,"[6]; 9.375 μg/ml, 72 h",+
same,Back transformation to trophozoites after drug wash-out,"[6]; 9.375 μg/ml, 96 h",+
same,Back transformation to trophozoites after drug wash-out,"[6]; 18.75 μg/ml, 1 h",+
same,Back transformation to trophozoites after drug wash-out,"[6]; 18.75 μg/ml, 24 h",−
same,Back transformation to trophozoites after drug wash-out,"[6]; 18.75 μg/ml, 48 h",−
same,Back transformation to trophozoites after drug wash-out,"[6]; 18.75 μg/ml, 72 h",−
same,Back transformation to trophozoites after drug wash-out,"[6]; 18.75 μg/ml, 96 h",−
same,Back transformation to trophozoites after drug wash-out,"[6]; 37.50 μg/ml, 1 h",−
same,Back transformation to trophozoites after drug wash-out,"[6]; 37.50 μg/ml, 24 h",−
same,Back transformation to trophozoites after drug wash-out,"[6]; 37.50 μg/ml, 48 h",−
same,Back transformation to trophozoites after drug wash-out,"[6]; 37.50 μg/ml, 72 h",−
same,Back transformation to trophozoites after drug wash-out,"[6]; 37.50 μg/ml, 96 h",−
same,Amoebotoxicity after wash-out and replacement with PG medium,[6]; after 24 h at 18.75 μg/ml,amoebotoxic
same,Amoebotoxicity after wash-out and replacement with PG medium,[6]; from 1 h onwards at 37.5 μg/ml,amoebotoxic
same,IC50,[1],4.9 µg/mL and 19 µM
same,IC50,"A. castellanii cysts [3]; 96 h, read-out: Estimated IC50 against matured cysts",19 ± 0.03 µg/mL
same,IC50,A. castellanii cysts [3]; [8],19.2 µg/mL and 72 µM
same,CMC,[4],0.26 ± 0.2 µM
same,Interaction profile of QAC combined with APCs,[5],less frequent and ‘noisy’
same,Resurgence of cysts after drug washout,A. castellanii cysts [7]; 37.5 μg/ml after 48 h,No resurgence
same,Back transformation to trophozoites after drug wash-out,"A. castellanii cysts [7]; 9.375 μg/ml, 24 h",+
same,Back transformation to trophozoites after drug wash-out,"A. castellanii cysts [7]; 9.375 μg/ml, 48 h",+
same,Back transformation to trophozoites after drug wash-out,"A. castellanii cysts [7]; 9.375 μg/ml, 72 h",+
same,Back transformation to trophozoites after drug wash-out,"A. castellanii cysts [7]; 18.75 μg/ml, 24 h",+
same,Back transformation to trophozoites after drug wash-out,"A. castellanii cysts [7]; 18.75 μg/ml, 48 h",+
same,Back transformation to trophozoites after drug wash-out,"A. castellanii cysts [7]; 18.75 μg/ml, 72 h",+
same,Back transformation to trophozoites after drug wash-out,"A. castellanii cysts [7]; 37.50 μg/ml, 24 h",+
same,Back transformation to trophozoites after drug wash-out,"A. castellanii cysts [7]; 37.50 μg/ml, 48 h",−
same,Back transformation to trophozoites after drug wash-out,"A. castellanii cysts [7]; 37.50 μg/ml, 72 h",−
